# Legend:
# L1210 leukemia [1] = experiment: Test 15: L1210 leukemia, compound of formula 8 (Table XI); format: in vivo, mouse; settings: for ILS % / MST / Range of death: 50 mg/kg
# Method: The proceeding of test 1 was repeated with the compound of formula 8 obtained according to example 1, i.e. 5,11-dimethyl-dipyrido[4,3-b][3,4-f]indole. In this test, the compound of formula 8 was injected four days after the inoculation of the cells (50 mg/kg). The results are shown in table XI wherein the results obtained with the same compound injected one day after the cell inoculation are also reported (see experiment no. 2 in table I).
# replication of the DNA = experiment: Test 6: DNA replication in synchronised cells; format: cell-based; settings: first minutes following addition
# L 1210 leukemia [2] = experiment: Test 12: single vs fractioned dose, L 1210 leukemic mice (Table IX); format: in vivo, mouse; design: MTS: unit not given beside the values
# new-born mice = experiment: Test 4: toxicity on new-born mice, IP; format: in vivo, mouse; settings: new-born mice
# From the text: Test 4: Investigation of the toxicity
# The toxic dose has been sought, on adult ([…]×DBA/2) Fl mice and on new-born mice, of the compounds of the invention by injection by the IP route. The results obtained are given hereinafter:
# 2-On new-born mice (IP route)
# Lewis carcinoma (3LL) = experiment: Test 13: Lewis carcinoma, antimetastasic effect; format: in vivo, BDF1 mice; settings: for MST: controls 25
# Method: "carcinome pulmonaire de Lewis" (3LL), K. SUGIURA and C. C. STOCK," Cancer Res. 1955 15 38-51.
# In this test, cells (10^6 cells) removed from a tumour-carrying mouse were injected into mice(BDF1) by the IM route. The mice developed, 10 to 15 days after the inoculation, a tumour at the spot where the injection was made. On the other hand, these cells made metastasis in the lung, forming colonies on the pulmonary surface. The antitumoral and antimetastasic effect of a product may therefore be judged on mice thus treated.
# Investigation of the antimetastasic effect of the compounds of examples 7 and 8 of the invention
# 10^6 cells taken from a tumour-carrying mouse were injected by the IM route (left-band paw) into groups of 10 mice and the compounds to be tested were inoculated by the IP route on day J+5 by single or fractioned injection. The mean survival time (MST) and the increased life span (ILS %) were determined.
# mice = experiment: Test 21: toxicity after intraperitoneal injection
# Method: All drugs were dissolved in aqueous solutions adjusted at pH 5 with acetic acid and inoculated to the mice under a volume of 0.1 ml I.P. after dilution in Mac Coy's medium.
# The toxicity of the drugs after intraperitoneal injection was estimated from the mortality rate up to the 30th day.
# L 1210 leukemia [3] = experiment: Test 10: comparison of antitumoral activity with known products, L 1210 (Tables V-VII); format: in vivo, mouse
# Method: Test 10: Comparison of the antitumoral activity of the compound according to example 7 with that of known products
# The compound of example 7, i.e. 1-(γ-diethylaminopropyl)amino-5-methyl-dipyrido-[4,3-b][3,4-f] indole or known compounds were injected into L 1210 leukemic mice 1 or 3 days after the inoculation of the cells at the doses indicated in tables V to VII and the mean survival time (MST) and the precentage of increased life span (ILS %) were measured.
# Indications concerned the known products used in this example and particularly their antitumoral properties, their secondary effects and their use in man may be found in "La Chimiotherapie des Cancers", by G. MATHE and M. KENIS Expansion Scientifique Francaise, 3rd edition, Paris 1975.
# L1210 leukemia [4] = experiment: Test 17: length of substituting chain, L1210 (Table XIII); format: in vivo, mouse
# Method: Test 17: Relationship between the length of the substituting chain and the activity.
# However compound 21 is less toxic (50 mg/kg for compound 21 and 25 mg/kg for compound 23), it has a higher ILS% than compound 23 and 1 mouse survived up to 60 days.
# leukemic cells = experiment: Test 20: combination of compound 21 with other drugs (Table XV); settings: 10^5 cells, BD 40 20 mg/kg day +4, Endoxan 100 mg/kg day +3
# Method: A priming dose of endoxan (100 mg/kg) was given 3 days after 10^5 leukemic cells (20 mice).
# [5] = 10^4 cells, 0.2 mg/mouse single at J+3
# [6] = 10^4 cells, 4 × 0.05 mg/mouse at J+3+4+5+6
# [7] = 10^5 cells, 0.2 mg/mouse single at J+3
# [8] = 10^5 cells, 4 × 0.05 mg/mouse at J+3+4+5+6
# [9] = 4 injections J+5+6+10+11, 2.5 mg/kg each
# [10] = Table V, 10^4 cells, J+1, 0.2 mg/mouse
# [11] = Table V, 10^4 cells, J+3, doses mg/mouse: example 7 0.2, Thiotepa 0.1, Mitomycine 0.016, BCNU 0.1, Methotrexate 0.250
# [12] = Table VI, 10^5 cells, J+1, 0.2 mg/mouse
# [13] = Table VI, 10^5 cells, J+3, mg/mouse: Thiotepa 0.1, Mitomycine C 0.016, BCNU 0.1, Methotrexate 0.250, example 7 0.2, Endoxan 4
# [14] = Table VII, 10^5 cells, J+3, example 7 0.2 mg/mouse, ON COVIN 0.5 μg/mouse
smiles,measurement,setting,value
"Cc1c2ccncc2c(C)c2c1[nH]c1ccncc12 [Example 1, 5,11-dimethyl dipyrido [4,3-b][3,4-f] indole]",ILS %,"L1210 leukemia [1]; 10^4 cells, day +1",11.8%
same,MST,"L1210 leukemia [1]; 10^4 cells, day +1",12.3 days
same,Range of death,"L1210 leukemia [1]; 10^4 cells, day +1",11-14
same,ILS %,"L1210 leukemia [1]; 10^4 cells, day +4",14.7%
same,MST,"L1210 leukemia [1]; 10^4 cells, day +4",12 days
same,Range of death,"L1210 leukemia [1]; 10^4 cells, day +4",10-16
same,ILS %,"L1210 leukemia [1]; 10^5 cells, day +1",38.1%
same,MST,"L1210 leukemia [1]; 10^5 cells, day +1",12.85 days
same,Range of death,"L1210 leukemia [1]; 10^5 cells, day +1",10-13
same,ILS %,"L1210 leukemia [1]; 10^5 cells, day +4",15.7%
same,MST,"L1210 leukemia [1]; 10^5 cells, day +4",10.3 days
same,Range of death,"L1210 leukemia [1]; 10^5 cells, day +4",10-11
same,ILS %,"L1210 leukemia [1]; 10^6 cells, day +1",47.3%
same,MST,"L1210 leukemia [1]; 10^6 cells, day +1",11.5 days
same,Range of death,"L1210 leukemia [1]; 10^6 cells, day +1",9-15
same,ILS %,"L1210 leukemia [1]; 10^6 cells, day +4",34.3%
same,MST,"L1210 leukemia [1]; 10^6 cells, day +4",9 days
same,Range of death,"L1210 leukemia [1]; 10^6 cells, day +4",8-13
same,"increased life span (ILS %), early vs late administration",L1210 leukemia [1]; product given earlier after the cells inoculum,higher when the product was given earlier
same,"replication of the DNA, initiation and elongation steps",replication of the DNA,"stops, in the first minutes following its addition, the replication of the DNA"
"CCN(CC)CCCNc1nccc2c(C)c3[nH]c4ccncc4c3cc12 [Example 7, 1-(γ-diethylaminopropyl)amino-5-methyl-dipyrido-[4,3-b][3,4-f] indole]",ILS %,L 1210 leukemia [2]; [5],19.32%
same,MTS,L 1210 leukemia [2]; [5],14.2
same,Surviving mice,L 1210 leukemia [2]; [5],1
same,ILS %,L 1210 leukemia [2]; [6],21%
same,MTS,L 1210 leukemia [2]; [6],14.4
same,Surviving mice,L 1210 leukemia [2]; [6],0
same,ILS %,L 1210 leukemia [2]; [7],36.35%
same,MTS,L 1210 leukemia [2]; [7],14.18
same,ILS %,L 1210 leukemia [2]; [8],28.85%
same,MTS,L 1210 leukemia [2]; [8],13.4
same,"antitumoral activity, single vs fractioned dose",L 1210 leukemia [2]; same dose single or on 4 occasions,a single dose has greater antitumoral activity than the same dose injected on 4 occasions
same,toxic dose,new-born mice,higher than 2.5 mg/kg of mouse
same,ILS %,"Lewis carcinoma (3LL); 1 injection J+5, 10 mg/kg",30.8%
same,MST,"Lewis carcinoma (3LL); 1 injection J+5, 10 mg/kg",32.7
same,ILS %,Lewis carcinoma (3LL); [9],9.6%
same,MST,Lewis carcinoma (3LL); [9],27.4
same,protective action concerning metastasic pulmonary invasion of the lung,Lewis carcinoma (3LL); IP from J+5,give a protective action
same,pulmonary metastases counted,"Lewis carcinoma (3LL); one mouse sacrificed day J+22, one injection J+5, non-treated mouse 77",35
same,time of deaths after drug administration,mice; IP,4 to 8 days
same,minimal quantity resulting in 100% deaths,"mice; IP, mortality up to the 30th day",50 mg/kg
same,toxicity (toxic dose),mice; Test 17 text,50 mg/kg
same,Range of death (first death),L 1210 leukemia [3]; [10],6 days
same,mice alive on 30th day,L 1210 leukemia [3]; [10],1
same,ILS %,L 1210 leukemia [3]; [11],25.45%
same,MTS (mean survival time),L 1210 leukemia [3]; [11],13.8
same,Range of death,"L 1210 leukemia [3]; Table V, 10^4 cells, J+3, mg/mouse: example 7 0.2, Thiotepa 0.1, Mitomycine 0.016, BCNU 0.1, Methotrexate 0.250, Endoxan 4",11 to 17 days
same,ILS %,L 1210 leukemia [3]; [12],39.07%
same,MTS (mean survival time),L 1210 leukemia [3]; [12],12.6
same,Range of death,L 1210 leukemia [3]; [12],9-16
same,ILS %,L 1210 leukemia [3]; [13],35.43%
same,MTS (mean survival time),L 1210 leukemia [3]; [13],12.27
same,Range of death,L 1210 leukemia [3]; [13],10-15
same,ILS %,L 1210 leukemia [3]; [14],36.35%
same,MTS (mean survival time),L 1210 leukemia [3]; [14],14.18
same,Range of death,L 1210 leukemia [3]; [14],13-16
same,activity against L1210 leukemia (in words),L1210 leukemia [4]; Table XIII summary,the compound the most active on the mice
same,ILS %,L1210 leukemia [4]; day +1,69.2%
same,Survivors up to 60 days,L1210 leukemia [4]; day +1,1
same,MST,"L1210 leukemia [4]; day +1, control MST 8.8",14.9
same,Range of death,"L1210 leukemia [4]; day +1, control MST 8.8",12-18
same,ILS %,L1210 leukemia [4]; day +4,65.6%
same,Survivors up to 60 days,L1210 leukemia [4]; day +4,0
same,MST,"L1210 leukemia [4]; day +4, control MST 11.2",18.5
same,Range of death,"L1210 leukemia [4]; day +4, control MST 11.2",14-32
same,ILS %,leukemic cells; BCNU 2 mg/kg,65.2%
same,Range of death,leukemic cells; BCNU 2 mg/kg immediately after endoxan,14-32
same,MST,"leukemic cells; BCNU 2 mg/kg, control 11.2",18.5

# Source: US4444776A, “Dipyrido (4,3-B) (3,4-F) indoles, process for obtaining them, therapeutical use and pharmaceutical compositions” (priority 1977, dated 1984)
